These results are taken from patent US8962580B2, “Chemical modifications of monomers and oligonucleotides with cycloaddition” (Alnylam Pharmaceuticals, Inc., priority 2008, dated 2015).

Where two headings read alike, the source gives them in different places. {L125} = ligand L125 of the publication, structure not given; d = 2'-deoxy (DNA); m = 2'-O-methyl; r = 2'-OH (RNA)

For the data set, the system named is firefly luciferase gene. Put plainly: Dual-luciferase assay for RNA interfering evaluation. Type of data set: cell-based. As to conditions: for IC50: read-out: IC 50 Values. As for the experimental part:
1. Dual-Luciferase Assay for RNA Interfering Evaluation
Modified RNAs obtained by solid-phase synthesis and click reactions were evaluated in RNA interfering in dual-luciferase assays. Duplexes were prepared by heating at 95° C. for 2 min and cooling to room temperature for 2 hours in 1X Phosphate buffered saline. (Table 12-14).
The ability of modified siRNAs to suppress gene expression was studied by a dual-luciferase assay using a pGL4 vector (Promega), which contained the Renilla and firefly luciferase genes. The siRNA sequences were designed to target the firefly luciferase gene. Stably transfected HeLa cells were then transfected with the indicated amounts of siRNAs, and the signals of firefly luciferase were normalized to those of renilla luciferase. HeLa SS6 cells were stably transfected with plasmids encoding firefly (target) and Renilla (control) luciferases.
RNA interference methods: Hela cells were grown at 37° C., 5% CO2 in Dulbecco's modified Eagles's medium (DMEM, GIBCO) supplemented with 10% fetal bovine serum (FBS) and 1% antibiotic. The cells were maintained in the exponential growth phase. The cells were then plated in 96-well plates (0.1 mL medium per well) to reach about 90% confluence at transfection. Transfection was allowed to proceed for 24 hr at 37° C. and on day 2 the culture medium was changed to OPTIMEM 1, a reduced serum media (GIBCO). Two luciferase plasmids, Renilla luciferase (pRL-CMV) and firefly luciferase (pGL3) from Promega, were used as control and reporter, respectively. Transfection of siRNAs was carried out with Lipofectamine 2000 (Invitrogen) as described by the manufacturer for adherent cell lines. The final volume was 150 uL per well. On day 2 cells are transfected with, firefly luciferase targeting, siRNA of varying concentrations ranging from 2 pM to 8 nM mediated by Lipofectamine 2000 reagent (Invitrogen). After 24 h, cells were analyzed for both firefly and renilla luciferase expression using a plate luminometer with a delay time of 2 s and an integrate time of 10 s. (VICTOR2, PerkinElmer, Boston, Mass.) and the Dual-Glo Luciferase Assay kit (Promega), FIG. 24. Firefly/renilla luciferase expression ratios were used to determine percent gene silencing relative to untreated (no siRNA) controls. Values generated represent the mean of triplicates.
The screening process began with a primary screen where all the compounds were screened against the parent unmodified duplex as a comparison. […] The final set of compounds was compared to one of our best modifications AD3202 and it can be seen that these compounds match up to AD 3202 in potency, however the exact mechanism by which the Uda modification contributes to improved activity is to be determined through further studies.
Dual HeLa (HeLa cells transfected with PGL4 plasmid for luciferase expression)
Tissue culture medium, trypsin and Lipofectamine-2000—purchased from Invitrogen (Carlsbad, Calif.).
DMEM supplemented with 10% fetal bovine serum, 1% antibiotic solution.
siRNA treatment was performed using Opti-MEM (Invitrogen) containing 1 mg/ml Lipofectamine2000
DMEM without phenol red, Promega Dual Glo Luciferase Assay kit, 0.25% Trypsin (Invitrogen).

[1] abbreviates: Table 13 (Part II), stably transfected HeLa cells, Lipofectamine 2000, 24 h, firefly/renilla luciferase ratio.
Setting [2] is: Table 12 (Part I), stably transfected HeLa cells, Lipofectamine 2000, 24 h, firefly/renilla luciferase ratio.

Consider “AD-1000: parent unmodified siRNA duplex: sense 1000 CUUACGCUGAGUACUUCGAdTdT, antisense 1001 UCGAAGUACUCAGCGUAAGdTdT (sense CUUACGCUGAGUACUUCGATT; antisense UCGAAGUACUCAGCGUAAGTT; sugars from the 5' end r19 d2, backbone not given here) [reference compound]”, for which the IC50 by setting is: under setting [1], 0.38 nM; (Table 14 (Part III), stably transfected HeLa cells, Lipofectamine 2000, 24 h, firefly/renilla luciferase ratio) 0.326 nM; (Table 15 (Part IV), selected potent duplexes, secondary screen / head to head comparison) 0.242 nM. In the case of “AD-20156: siRNA duplex: sense 33031.1 CUUACGCUGAGUACUUCGAdT(Uda2p), antisense 1001; Uda2p-3′end (sense CUUACGCUGAGUACUUCGAT; antisense UCGAAGUACUCAGCGUAAGTT; Uda2p 3' end on sense, chemistry not fully specified)”, the IC50 under setting [1] was found to be 1.18 nM. As to “AD-20157: siRNA duplex: sense 33032.1 CUUACGCUGAG(Uda)ACUUCGAdT(Uda2p), antisense 1001; U12-->Uda, Uda2p-3′end (sense CUUACGCUGAGUACUUCGAT; antisense UCGAAGUACUCAGCGUAAGTT; U12 Uda, Uda2p 3' end on sense, chemistry not fully specified)”, the “IC 50 Values (nM)” value under setting [1] is recorded as “NA—out”. For the substance “AD-20158: siRNA duplex: sense 33033.1 C(Uda)UACGCUGAGUACUUCGAdT(Uda2p), antisense 1001; U2-->Uda, Uda2p-3′end (sense CUUACGCUGAGUACUUCGAT; antisense UCGAAGUACUCAGCGUAAGTT; U2 Uda, Uda2p 3' end on sense, chemistry not fully specified)”, for the setting “Table 13 (Part II), parent AD-1000”, the “Fold Increase in activity as compared to parent” value came to 2 fold. Under setting [1], the IC50 worked out at 1.5 nM. Regarding “AD-20201: siRNA duplex: sense 36862 CUUACGCUGAGUACUUCGAdTdTL125, antisense 1001; 3′ L125 (sense CUUACGCUGAGUACUUCGATT; antisense UCGAAGUACUCAGCGUAAGTT; 3' L125 on sense, chemistry not fully specified)”, the IC50 under setting [2] came out at 0.922 nM. On the same count and under the same terms, to “AD-20202: siRNA duplex: sense 37075 CUUACGCUGAGUACUUCGAdTdT(T1y), antisense 1001; 3′ (Tly) (sense CUUACGCUGAGUACUUCGATTT; antisense UCGAAGUACUCAGCGUAAGTT; 3' (Tly) on sense, chemistry not fully specified)” belongs 1.12 nM. The same measure, in the same setting: to “AD-20203: siRNA duplex: sense 37077 CUUACGCUGAGUACUUCGAdTdT(T31y), antisense 1001; 3′ (T31y) (sense CUUACGCUGAGUACUUCGATT; antisense UCGAAGUACUCAGCGUAAGTT; 3' (T31y) on sense, chemistry not fully specified)” belongs 1.41 nM. Turning to “AD-20321: siRNA duplex: sense 38103.1 AAcGcuGGGcGuuAAucAAdTdTL125 (2′OMe-all Py and 3′ L125), antisense 24599 UUGAUuAACGCCcAGCGUUdTsdT (sense AACGCUGGGCGUUAAUCAATT; antisense UUGAUUAACGCCCAGCGUUTT; sense: DNA at T, 2'-O-methyl at CU, RNA at AG, 3' {L125}, backbone not given here; antisense: sugars from the 5' end rrrrrmrrrrrrmrrrrrrdd, backbone not given here)”, the “IC 50 Values (nM)” value under setting [2] was “out of range”.
